According to PubChem BioAssay AID248 (DTP/NCI, 2004):
Several values for one entry are separate records, joined by “and”; a condition that tells them apart may be missing. Equal values may be shown once. Inconclusive results and toxic doses are left out.

System: L1210 leukemia ip in BDF1 mice, survival T/C
Test: NCI In Vivo Anticancer Drug Screen. Data for tumor model L1210 Leukemia (intraperitoneal) in B6D2F1 (BDF1) mice
Settings: endpoint: mean survival time, higher = longer survival
Method in brief: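 Value reflects the ratio of survival in compound-treated mice to survival in vehicle-treated controls, with both groups carrying the same transplanted tumor.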

[1] = dose: 100.0 mg/kg/injection, schedule: Q01DX001 (ip), vehicle: saline
[2] = dose: 200.0 mg/kg/injection, schedule: Q01DX001 (ip), vehicle: saline
[3] = dose: 400.0 mg/kg/injection, schedule: Q01DX001 (ip), vehicle: saline
[4] = dose: 100.0 mg/kg/injection, schedule: Q01DX009 (ip), vehicle: Klucel (hydroxypropylcellulose) (HPC)
[5] = dose: 200.0 mg/kg/injection, schedule: Q01DX009 (ip), vehicle: Klucel (hydroxypropylcellulose) (HPC)
[6] = dose: 400.0 mg/kg/injection, schedule: Q01DX009 (ip), vehicle: Klucel (hydroxypropylcellulose) (HPC)
[7] = dose: 100.0 mg/kg/injection, schedule: Q04DX003 (ip), vehicle: saline with Tween-80
[8] = dose: 200.0 mg/kg/injection, schedule: Q04DX003 (ip), vehicle: saline with Tween-80
[9] = dose: 400.0 mg/kg/injection, schedule: Q04DX003 (ip), vehicle: saline with Tween-80
[10] = dose: 50.0 mg/kg/injection, schedule: Q01DX001 (ip), vehicle: saline
[11] = dose: 12.5 mg/kg/injection, schedule: Q01DX009 (ip), vehicle: Klucel (hydroxypropylcellulose) (HPC)
[12] = dose: 100.0 mg/kg/injection, schedule: Q01DX001 (ip), vehicle: carboxymethylcellulose (CMC)
[13] = dose: 200.0 mg/kg/injection, schedule: Q01DX001 (ip), vehicle: carboxymethylcellulose (CMC)
[14] = dose: 400.0 mg/kg/injection, schedule: Q01DX001 (ip), vehicle: carboxymethylcellulose (CMC)

With `O=C(Nc1ccc([N+](=O)[O-])cc1)c1cc(N2CCOCC2)ccn1` the T/C [1] was 89 % of control and 91 % of control, the T/C [2] was 94 % of control and 95 % of control and the T/C [3] was 95 % of control and 91 % of control.
For `O=C(O)C1CCCCC1C(=O)Nc1cccc2ccccc12` (stereo not given), the T/C [4] was 105 % of control, the T/C [5] was 96 % of control and the T/C [6] was 93 % of control.
`CC(C)=CC#N` was tested, and the T/C [7] was 90 % of control, the T/C [8] was 103 % of control and the T/C [9] was 101 % of control.
`CC1(C)CC(=O)C(c2ccccc2[N+](=O)[O-])=C(O)C1` was tested, and the T/C [10] was 102 % of control, the T/C [1] was 105 % of control and the T/C [2] was 90 % of control. For the same compound, the T/C [3] was 94 % of control.
In the case of `O=C(NC1CCC(NC(=O)N2CC2)CC1)N1CC1` (stereo not given), the T/C (dose: 0.12 mg/kg/injection, schedule: Q01DX009 (ip), vehicle: carboxymethylcellulose (CMC)) is reported as 116 % of control, the T/C (dose: 0.29 mg/kg/injection, schedule: Q01DX009 (ip), vehicle: carboxymethylcellulose (CMC)) is reported as 120 % of control and the T/C (dose: 0.8 mg/kg/injection, schedule: Q01DX009 (ip), vehicle: carboxymethylcellulose (CMC)) is reported as 164 % of control. For the same compound, the T/C (dose: 1.0 mg/kg/injection, schedule: Q01DX009 (ip), vehicle: carboxymethylcellulose (CMC)) was 118 % of control, the T/C (dose: 1.2 mg/kg/injection, schedule: Q01DX009 (ip), vehicle: carboxymethylcellulose (CMC)) was 164 % of control and the T/C (dose: 1.3 mg/kg/injection, schedule: Q01DX001 (ip), vehicle: carboxymethylcellulose (CMC)) was 114 % of control and 115 % of control. The T/C (dose: 1.3 mg/kg/injection, schedule: Q01DX009 (ip), vehicle: carboxymethylcellulose (CMC)) was 94 % of control, the T/C (dose: 1.8 mg/kg/injection, schedule: Q01DX009 (ip), vehicle: carboxymethylcellulose (CMC)) was 170 % of control and the T/C (dose: 2.0 mg/kg/injection, schedule: Q01DX001 (ip), vehicle: carboxymethylcellulose (CMC)) was 112 % of control and 123 % of control. The T/C (dose: 2.0 mg/kg/injection, schedule: Q01DX009 (ip), vehicle: carboxymethylcellulose (CMC)) was 94 % of control, the T/C (dose: 2.5 mg/kg/injection, schedule: Q01DX009 (ip), vehicle: carboxymethylcellulose (CMC)) was 120 % of control and the T/C (dose: 3.0 mg/kg/injection, schedule: Q01DX001 (ip), vehicle: carboxymethylcellulose (CMC)) was 119 % of control. The T/C (dose: 3.37 mg/kg/injection, schedule: Q01DX009 (ip), vehicle: carboxymethylcellulose (CMC)) was 97 % of control and the T/C (dose: 4.5 mg/kg/injection, schedule: Q01DX001 (ip), vehicle: carboxymethylcellulose (CMC)) was 151 % of control.
For `S=c1[nH]c2ccc(Cl)cc2[nH]1`, the T/C (dose: 25.0 mg/kg/injection, schedule: Q04DX003 (ip), vehicle: saline with Tween-80) was 100 % of control, the T/C (dose: 50.0 mg/kg/injection, schedule: Q04DX003 (ip), vehicle: saline with Tween-80) was 98 % of control and the T/C [7] was 100 % of control.
`CC(=O)C1=CC(=O)NC(=O)C1C(=O)CC(C)C` (stereo not given) was tested, and the T/C (dose: 0.78 mg/kg/injection, schedule: Q01DX009 (ip), vehicle: Klucel (hydroxypropylcellulose) (HPC)) was 97 % of control, the T/C (dose: 1.56 mg/kg/injection, schedule: Q01DX009 (ip), vehicle: Klucel (hydroxypropylcellulose) (HPC)) was 97 % of control and the T/C (dose: 3.12 mg/kg/injection, schedule: Q01DX009 (ip), vehicle: Klucel (hydroxypropylcellulose) (HPC)) was 93 % of control. For the same compound, the T/C (dose: 6.25 mg/kg/injection, schedule: Q01DX009 (ip), vehicle: Klucel (hydroxypropylcellulose) (HPC)) was 98 % of control, the T/C [11] was 98 % of control and the T/C (dose: 12.5 mg/kg/injection, schedule: Q04DX003 (ip), vehicle: Klucel (hydroxypropylcellulose) (HPC)) was 98 % of control. For the same compound, the T/C (dose: 25.0 mg/kg/injection, schedule: Q04DX003 (ip), vehicle: Klucel (hydroxypropylcellulose) (HPC)) was 96 % of control.
`CCOC1=NCCCCC1OC(C)=O` (stereo not given) was tested, and the T/C [4] was 107 % of control, the T/C [5] was 104 % of control and the T/C [6] was 95 % of control.
In the case of `N#CCCn1c(=O)n(CCC#N)c(=O)n(CCC#N)c1=O`, the T/C (dose: 100.0 mg/kg/injection, schedule: Q04DX002 (ip), vehicle: Klucel (hydroxypropylcellulose) (HPC)) is reported as 104 % of control, the T/C (dose: 200.0 mg/kg/injection, schedule: Q04DX002 (ip), vehicle: Klucel (hydroxypropylcellulose) (HPC)) is reported as 97 % of control and the T/C (dose: 400.0 mg/kg/injection, schedule: Q04DX002 (ip), vehicle: Klucel (hydroxypropylcellulose) (HPC)) is reported as 93 % of control.
`O=C(CC(c1ccccc1)N1CCN(c2ccccc2)CC1)c1ccc(F)cc1` (stereo not given) was tested, and the T/C [11] was 88 % of control, the T/C (dose: 25.0 mg/kg/injection, schedule: Q01DX009 (ip), vehicle: Klucel (hydroxypropylcellulose) (HPC)) was 93 % of control and the T/C (dose: 50.0 mg/kg/injection, schedule: Q01DX009 (ip), vehicle: Klucel (hydroxypropylcellulose) (HPC)) was 93 % of control. For the same compound, the T/C (dose: 200.0 mg/kg/injection, schedule: Q01DX009 (ip), vehicle: gum acacia) was 87 % of control and the T/C (dose: 400.0 mg/kg/injection, schedule: Q01DX009 (ip), vehicle: gum acacia) was 89 % of control.
For `c1ccc(B2Nc3ccccc3-c3ccccc32)cc1`, the T/C [7] was 98 % of control, the T/C [8] was 96 % of control and the T/C [9] was 98 % of control.
With `CCOC(=O)Cc1cc(=O)[nH]n(-c2ccccc2)c1=O` the T/C (dose: 100.0 mg/kg/injection, schedule: Q04DX002 (ip), vehicle: gum acacia) was 100 % of control, the T/C (dose: 200.0 mg/kg/injection, schedule: Q04DX002 (ip), vehicle: gum acacia) was 89 % of control and the T/C (dose: 400.0 mg/kg/injection, schedule: Q04DX002 (ip), vehicle: gum acacia) was 96 % of control.
In the case of `CC(C)CC(CC(C)C)OB(OC(CC(C)C)CC(C)C)OC(CC(C)C)CC(C)C`, the T/C (dose: 50.0 mg/kg/injection, schedule: Q01DX001 (ip), vehicle: other) is reported as 96 % of control, the T/C (dose: 100.0 mg/kg/injection, schedule: Q01DX001 (ip), vehicle: other) is reported as 96 % of control and the T/C (dose: 200.0 mg/kg/injection, schedule: Q01DX001 (ip), vehicle: other) is reported as 96 % of control. For the same compound, the T/C (dose: 400.0 mg/kg/injection, schedule: Q01DX001 (ip), vehicle: other) was 90 % of control.
With `O=C(O)C=C(CBr)CBr` the T/C (dose: 10.0 mg/kg/injection, schedule: Q01DX001 (ip), vehicle: saline) was 93 % of control, the T/C (dose: 20.0 mg/kg/injection, schedule: Q01DX001 (ip), vehicle: saline) was 94 % of control and the T/C (dose: 40.0 mg/kg/injection, schedule: Q01DX001 (ip), vehicle: saline) was 109 % of control.
With `Cc1nc(N)c2c(ncn2C2OC(CO)C(O)C2O)n1` (stereo not given) the T/C [1] was 100 % of control, the T/C [2] was 108 % of control and the T/C [3] was 105 % of control.
With `CC1(C)CC(=O)CC(C)(CN)C1` (stereo not given) the T/C (dose: 100.0 mg/kg/injection, schedule: Q04DX003 (ip), vehicle: Klucel (hydroxypropylcellulose) (HPC)) was 100 % of control, the T/C (dose: 200.0 mg/kg/injection, schedule: Q04DX003 (ip), vehicle: Klucel (hydroxypropylcellulose) (HPC)) was 104 % of control and the T/C (dose: 400.0 mg/kg/injection, schedule: Q04DX003 (ip), vehicle: Klucel (hydroxypropylcellulose) (HPC)) was 100 % of control.
`CC1C(C(=O)c2ccc(-c3ccccc3)cc2)N1c1ccccc1` (stereo not given) was tested, and the T/C (dose: 100.0 mg/kg/injection, schedule: Q01DX001 (ip), vehicle: Klucel (hydroxypropylcellulose) (HPC)) was 94 % of control and the T/C (dose: 400.0 mg/kg/injection, schedule: Q01DX001 (ip), vehicle: Klucel (hydroxypropylcellulose) (HPC)) was 94 % of control.
For `CCOC(=O)COCC(C)=O`, the T/C (dose: 50.0 mg/kg/injection, schedule: Q01DX009 (ip), vehicle: saline with Tween-80) was 92 % of control, the T/C (dose: 100.0 mg/kg/injection, schedule: Q01DX009 (ip), vehicle: saline with Tween-80) was 96 % of control and the T/C (dose: 200.0 mg/kg/injection, schedule: Q01DX009 (ip), vehicle: saline with Tween-80) was 96 % of control.
With `CC(C)NC(=O)C1CC2c3cccc4[nH]c(Br)c(c34)CC2N(C)C1` (stereo not given) the T/C (dose: 5.0 mg/kg/injection, schedule: Q04DX003 (ip), vehicle: saline with Tween-80) was 94 % of control, the T/C (dose: 10.0 mg/kg/injection, schedule: Q04DX003 (ip), vehicle: saline with Tween-80) was 93 % of control and the T/C (dose: 20.0 mg/kg/injection, schedule: Q04DX003 (ip), vehicle: saline with Tween-80) was 88 % of control.
In the case of `CCN(CC)c1ccc(/C=C2/C=Cc3ccccc32)cc1`, the T/C [12] is reported as 92 % of control, the T/C [13] is reported as 90 % of control and the T/C [14] is reported as 95 % of control.
`COc1cc2c(cc1OC)C(Cc1ccc(O)cc1)N(C)CC2` (stereo not given) was tested, and the T/C [1] was 96 % of control and the T/C [2] was 91 % of control.
With `CCOc1ccc(C(=O)/C=C\c2ccc(N(CC)CC)cc2)cc1` the T/C [4] was 96 % of control, the T/C [5] was 93 % of control and the T/C [6] was 91 % of control.
`O=C1c2cc(Br)ccc2NC1(c1c[nH]c2ccccc12)c1c[nH]c2ccccc12` was tested, and the T/C [10] was 102 % of control, the T/C [1] was 100 % of control and the T/C [2] was 96 % of control. The T/C [3] was 93 % of control.
`O=C1c2ccccc2-c2cc(Br)c([N+](=O)[O-])c(Br)c21` was tested, and the T/C [12] was 96 % of control, the T/C [13] was 101 % of control and the T/C [14] was 102 % of control.
